According to patent publication US20260345647A1, “AST-3424 COMBINATION FOR TREATING LEUKEMIA AND LYMPHOMA” (ASCENTAWITS PHARMACEUTICALS, LTD., priority 2022, published 2026):
Entries after “also recorded” stand apart in the source; their conditions may differ. Structures can show the parent of a compound that is named as a salt. Where two headings read alike, the source gives them in different places.

How the values were obtained:
CCRF-CEM cells [1] = assay: In vitro cell proliferation assay, monotherapy (CellTiter-Glo); type: cell-based; details: Homo sapiens
Method: (§1) On day 1, cells were seeded in 96-well cell culture plates (at 180 μL/well).
(§2) On day 2, 20 μL of a 10-fold test concentration of the working solution of the compound (AST-3424) was added. The cell plates were gently agitated, and were then placed in an incubator at 37 °C for further culture.
(§3) On day 3, 20 μL of a 10-fold test concentration of the solution of the compound (cytarabine and daunorubicin) was added. The cell plates were gently agitated, and were then placed in an incubator at 37 °C for further 72 hours.
(§4) After incubation, to the cell plates was added a reagent prepared according to the Protocol for a […] CellTiter-Glo Reagent (50 μL/well). The plates were thoroughly agitated and were then incubated at room temperature in the dark for 10 minutes.
(§5) The cell plates were placed in a plate reader for analysis to detect chemiluminescence and record the data.
(§6) The readings in each well should be converted into cell viability, which was calculated by the following formula:
(§7) • 1. MOLT-4 and MOLT-3 were derived from a patient with acute lymphoblastic leukemia in relapse who had previously received polydrug combination chemotherapy. The MOLT-4 cell line was originated from T lymphocytes, wherein there is a G→A mutation in Codon 248 of the p53 gene with no expression of p53, immunoglobulin or Epstein-Barr virus, resulting in high levels of terminal deoxyribosyl transferase, and expression of CD1 (49%), CD2 (35%), CD3 A (26%) B (33%) C (34%), CD4 (55%), CD5 (72%), CD6 (22%), and CD7 (77%). The cell is a human acute lymphoblastic leukemia cell, and the corresponding disease is human T-cell acute lymphoblastic leukemia, or T-ALL. • 2. PF-382 is a human T-cell acute lymphoblastic leukemia cell, and the corresponding disease is human T-cell acute lymphoblastic leukemia, or T-ALL. • 3. Jurkat, Clone E6-1 is a clone of the Jurkat-FHCRC cell line, a derivative of the Jurkat cell line, which was established from the peripheral blood of a patient suffering from T-cell acute leukemia. It is a human T lymphocytic leukemia cell, and the corresponding disease is T-ALL. • 4. SUP-T1 is a human T lymphoblastoma cell, and the corresponding disease is T-cell Lymphoblastic Lymphoma (T-LBL). • 5. CCRF-CEM is a human acute lymphoblastic leukemia, T lymphocyte serum culture cell, which was obtained in November 1964 from the peripheral blood leukocytes of a patient suffering from acute lymphoblastic leukemia. The cell is a human T-cell acute lymphoblastic leukemia cell, and the corresponding disease is T-cell acute lymphoblastic leukemia, or T-ALL.

SUP-T1 cells [2] = assay: as above; type: cell-based; details: Homo sapiens
Method: as §1, §2, §3, §4, §5, §6, §7

PF-382 cells [3] = assay: as above; type: cell-based; details: Homo sapiens
Method: as §1, §2, §3, §4, §5, §6, §7

MOLT-4 cells [4] = assay: as above; type: cell-based; details: Homo sapiens
Method: as §1, §2, §3, §4, §5, §6, §7

Jurkat, Clone E6-1 cells [5] = assay: as above; type: cell-based; details: Homo sapiens
Method: as §1, §2, §3, §4, §5, §6, §7

[6] = system: five cell lines including CCRF-CEM, PF-382, Jurkat, Clone E6-1, SUP-T1, and MOLT-4; assay: In vitro cell proliferation assay, monotherapy, summary over five cell lines; type: cell-based, human; details: for inhibitory effects on cell proliferation: monotherapy, five cell lines
Method: as §1, §2, §3, §4, §5, §6, §7

liver cancer cells [7] = details: flow cytometry; cited from earlier work
cancer cells = details: cited from earlier work
tumor cells = details: Transwell; MMP-9; cited from earlier work
CCRF-CEM cells [8] = assay: In vitro cell proliferation assay, combination therapy (CellTiter-Glo); type: cell-based, human; details: 0.1 nM and 1 nM AST-3424
Method: as §1
(§8) On day 2, 10 μL of a 20-fold test concentration of the AST-3424 solution (20-fold concentration of either of the two concentrations IC25 and IC10) was added. The cell plates were gently agitated, and were then placed in an incubator at 37 °C for further culture.
(§9) On day 3, to the combination therapy wells was added 10 μL of a 20-fold test concentration of the compound (cytarabine or daunorubicin) (20-fold concentration of each of the three concentrations IC50, IC25, and ICs), and to the monotherapy wells was added 10 μL of a culture medium containing 2% DMSO. The cell plates were gently agitated, and were then placed in an incubator at 37 °C for further 72 h.
(§10) After incubation, a reagent prepared according to the instructions for the CellTiter-Glo Reagent was added (at 50 μL/well). The cell plates were agitated thoroughly and were then incubated at room temperature in the dark for 10 minutes.
(§11) The cell plate was placed in a plate reader for analysis to detect chemiluminescence and record the data.
(§12) The readings in each well should be converted into cell viability, which was calculated by the formula as described in section 1.1.
(§13) The final viability percentages under different conditions were plotted into column charts.

SUP-T1 cells [9] = assay: as above; type: cell-based, human; details: 0.13 nM and 1 nM AST-3424
Method: as §1, §8, §9, §10, §11, §12, §13

PF-382 cells [10] = assay: as above; type: cell-based, human; details: 0.64 and 2.5 nM AST-3424
Method: as §1, §8, §9, §10, §11, §12, §13

MOLT-4 cells [11] = assay: as above; type: cell-based, human
Method: as §1, §8, §9, §10, §11, §12, §13

Jurkat, Clone E6-1 cells [12] = assay: as above; type: cell-based, human; details: 0.64 nM and 16 nM AST-3424
Method: as §1, §8, §9, §10, §11, §12, §13

HepG2 = details: HepG2, high AKR1C3 expression; cited from earlier work
PLC/PRF/5 = details: PLC/PRF/5, high AKR1C3 expression; cited from earlier work
TGF-β signaling pathway = details: cited from earlier work
liver cancer cells [13] = details: flow cytometry; Bax, Caspase3, PARP; cited from earlier work
[14] = Clinical plasma concentration (dose comparison and conversion); type: in vivo
Description: Both daunorubicin and cytarabine are drugs used in clinical practice to treat leukemia or other tumors.

[15] = cited from earlier work
[16] = system: acute lymphoblastic leukemia; details: cited from earlier work
[17] = system: neuroblastoma and rhabdomyosarcoma; details: cited from earlier work
[18] = monotherapy, 72 hours, read-out: IC50
[19] = experiments that were conducted previously, read-out: IC50 (superscript 2)

## COc1cccc2c1C(=O)c1c(O)c3c(c(O)c1C2=O)C[C@@](O)(C(C)=O)C[C@@H]3O[C@H]1C[C@H](N)[C@H](O)[C@H](C)O1 [Daunorubicin hydrochloride, daunorubicin hydrochloride, reference compound]
CCRF-CEM cells [1]; [18]
  IC50: 30.7 nM
SUP-T1 cells [2]; [18]
  IC50: 30.6 nM
PF-382 cells [3]; [18]
  IC50: 14.2 nM
MOLT-4 cells [4]; [18]
  IC50: 24.2 nM
Jurkat, Clone E6-1 cells [5]; [18]
  IC50: 41 nM

## C[C@H](OP(=O)(N1CC1)N1CC1)c1ccc([N+](=O)[O-])c(Oc2cccc(C(=O)N(C)C)c2)c1 [AST-3424]
[6]; four cell lines except Jurkat, Clone E6-1
  in vitro cytotoxicity compared with daunorubicin and cytarabine: superior to that of daunorubicin and cytarabine
[6]
  inhibitory effects on cell proliferation: good inhibitory effects
Liver cancer cells [7]
  cell cycle block: could block the cells in the S phase
CCRF-CEM cells [1]; [19]
  IC50: 14.9 nM
CCRF-CEM cells [1]; [18]
  IC50: 3.68 nM
SUP-T1 cells [2]; [19]
  IC50: 3.7 nM
SUP-T1 cells [2]; [18]
  IC50: 2.47 nM
PF-382 cells [3]; [19]
  IC50: 3 nM
PF-382 cells [3]; [18]
  IC50: 4.09 nM
MOLT-4 cells [4]; [19]
  IC50: 10 nM
MOLT-4 cells [4]; [18]
  IC50: 8.04 nM
Jurkat, Clone E6-1 cells [5]; [19]
  IC50: 24 nM
Jurkat, Clone E6-1 cells [5]; [18]
  IC50: 4620 nM
Cancer cells; AST-3424 itself (prodrug)
  toxicity to cancer cells: low toxicity to cancer cells
Cancer cells; animal models and in vitro pharmacological experiments
  dependence of potency on AKR1C3 expression level: dependent on the level of AKR1C3 expression; also recorded: positively correlated with AKR1C3 expression levels
Tumor cells
  migration and invasion of tumor cells: could inhibit the migration and invasion of tumor cells
CCRF-CEM cells [8]
  effect on proliferation, AST-3424 monotherapy: no effect
SUP-T1 cells [9]
  effect on proliferation, AST-3424 monotherapy: no effect
PF-382 cells [10]
  effect on proliferation, AST-3424 monotherapy: no significant effect
MOLT-4 cells [11]; 3.2 nM and 6.4 nM AST-3424
  effect on proliferation, AST-3424 monotherapy: no significant effect
Jurkat, Clone E6-1 cells [12]
  effect on proliferation, AST-3424 monotherapy: no significant effect
HepG2
  inhibitory effects: excellent inhibitory effects
PLC/PRF/5
  inhibitory effects: excellent inhibitory effects
TGF-β signaling pathway
  effect on TGF-β signaling pathway / proliferation: could reduce the proliferation effect by inhibiting the TGF-β signaling pathway
Liver cancer cells [13]
  apoptosis induction: may induce apoptosis by upregulating Bax and Caspase3 proteins and downregulating the PARP protein

## Nc1ccn([C@@H]2O[C@H](CO)[C@@H](O)[C@@H]2O)c(=O)n1 [Cytarabine, cytarabine, reference compound]
[6]
  inhibitory effects on cell proliferation: good inhibitory effects
[14]; 1.8-3 g/m^2, administration with 12 times, converted from steady concentration, read-out: Molar concentration after conversion (steady concentration)
  concentration: 32 to 97 µM
[15]; 1.8-3 g/m^2, administration with 12 times, steady concentration
  Steady plasma concentration: 8 to 24 µg/mL
CCRF-CEM cells [1]; [18]
  IC50: 82.2 nM
SUP-T1 cells [2]; [18]
  IC50: 856 nM
PF-382 cells [3]; [18]
  IC50: 26.4 nM
MOLT-4 cells [4]; [18]
  IC50: 120 nM
Jurkat, Clone E6-1 cells [5]; [18]
  IC50: 100 nM

## COc1cccc2c1C(=O)c1c(O)c3c(c(O)c1C2=O)C[C@@](O)(C(C)=O)C[C@@H]3O[C@H]1C[C@H](N)[C@H](O)[C@H](C)O1 [daunorubicin]
[6]
  inhibitory effects on cell proliferation: good inhibitory effects
[14]; human, plasma, 44 mg/m^2, administration on day 1, 3, 5, converted from Cmax, read-out: Molar concentration after conversion (Cmax)
  Cmax: 49 µM
[15]; 44 mg/m^2, administration on day 1, 3, 5, Cmax
  Plasma Cmax: 26000 ng/mL
[16]; acute lymphoblastic leukemia
  remission rate: high remission rate
[16]; clinical use
  side effects: severe side effects
MOLT-4 cells [11]; 40 nM daunorubicin
  potency on cell proliferation, daunorubicin: very significant potency
[17]
  therapeutic effects: excellent therapeutic effects
